{"source": "patent US20110002969A1", "about": "“COSMETIC OR PHARMACEUTICAL COMPOSITIONS COMPRISING METALLOPROTEINASE INHIBITORS” (LIPOTEC, S.A., priority 2008, published 2011)", "format_in_all_cases": "biochemical", "key": {"type IV collagenase": {"tested_on": "type IV collagenase", "assay": "Collagenase inhibition trial (EnzChek Gelatinase/Collagenase Assay Kit, DQ Gelatin fluorescence)", "details": "peptides at 2 mg/mL, preincubated 1 hour with 0.1 unit/mL type IV collagenase; DQ Gelatin 25 μg/mL, 2 hours; normalized to medium basal values", "experimental": "Peptides were resuspended in water in the presence of 0.5% DMSO. The trial was carried out in black microplates having 96 well and the EnzChek®Gelatinase/Collagenase Assay Kit (Molecular Probes) was used. To that end, peptides were preincubated at 2 mg/mL during 1 hour with 0.1 unit/mL of type IV collagenase at room temperature with moderate agitation, after said time fluorescein conjugated substrate (DQ™ Gelatin) was added to a final concentration of 25 μg/mL and reactions were incubated for 2 hours at room temperature with agitation and protected from light. The substrate, whose flourescence is inhibited, is […] collagenase releasing flourescent fragments, monitored by florescence with a FLUOstar galaxy reader (BMG LabTechnologies), using 485 nm filters for excitation and 520 nm for emission.\nTable 2 details those peptides whose collagenase inhibition values are higher than 25%. Inhibition values were normalized with respect to medium inhibition basal values."}, "Human MMP-1": {"molecular_target": "T1, Human MMP-1 (Homo sapiens, UniProt P03956)", "T1 sequence (P03956 100-469)": "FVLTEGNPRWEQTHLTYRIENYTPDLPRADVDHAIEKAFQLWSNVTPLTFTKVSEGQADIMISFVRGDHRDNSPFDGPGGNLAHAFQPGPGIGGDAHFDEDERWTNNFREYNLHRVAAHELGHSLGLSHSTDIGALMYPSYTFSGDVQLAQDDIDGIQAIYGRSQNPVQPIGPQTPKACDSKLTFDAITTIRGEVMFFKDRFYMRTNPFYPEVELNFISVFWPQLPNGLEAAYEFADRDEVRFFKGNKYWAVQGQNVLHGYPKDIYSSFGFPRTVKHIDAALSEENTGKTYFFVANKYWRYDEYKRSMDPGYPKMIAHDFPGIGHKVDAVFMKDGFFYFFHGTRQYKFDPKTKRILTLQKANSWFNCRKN", "assay": "Human MMP inhibition, DQ Gelatin fluorescence", "details": "peptides 0.5 mM, activated protease 0.35 μg/mL, 1 hour preincubation; DQ Gelatin 25 μg/mL, 16 hours; normalized to control fluorescence", "experimental": "(§1) Human MMPs were reconstructed in 50 mM Tris-HCl, 150 mM NaCl, 5 mM CaCl2, 0.2 mM NaN3 at a 7.6 pH and activated by reaction with 10 mM of 4-aminophenylmercuric acetate (dissolved in 0.01M NaOH) at a 10:1 to 37° C. ratio for 4-6 h. Activated proteases (0.35 μg/mL) were preincubated with peptides to a final 0.5 mM concentration in a 96-well black microplate for 1 hour at room temperature. After preincubation, 25 μg/mL substrate (DQ™ Gelatin) were added to the wells and samples were incubated for 16 hours at room temperature and protected against the light. Released flourescence by marked gelatin digestion was measured with an automated multiplate fluorescence reader, exciting at 485 nm and reading at 520 nm.\n(§2) The results were corrected from basal flourescent value in MMP and product absence and normalized with respect to control fluorescence. Table 3 details the best inhibition values for peptides."}, "Human MMP-9": {"molecular_target": "Human MMP-9 (Homo sapiens, UniProt P14780)", "sequence (P14780 107-707 limits assumed)": "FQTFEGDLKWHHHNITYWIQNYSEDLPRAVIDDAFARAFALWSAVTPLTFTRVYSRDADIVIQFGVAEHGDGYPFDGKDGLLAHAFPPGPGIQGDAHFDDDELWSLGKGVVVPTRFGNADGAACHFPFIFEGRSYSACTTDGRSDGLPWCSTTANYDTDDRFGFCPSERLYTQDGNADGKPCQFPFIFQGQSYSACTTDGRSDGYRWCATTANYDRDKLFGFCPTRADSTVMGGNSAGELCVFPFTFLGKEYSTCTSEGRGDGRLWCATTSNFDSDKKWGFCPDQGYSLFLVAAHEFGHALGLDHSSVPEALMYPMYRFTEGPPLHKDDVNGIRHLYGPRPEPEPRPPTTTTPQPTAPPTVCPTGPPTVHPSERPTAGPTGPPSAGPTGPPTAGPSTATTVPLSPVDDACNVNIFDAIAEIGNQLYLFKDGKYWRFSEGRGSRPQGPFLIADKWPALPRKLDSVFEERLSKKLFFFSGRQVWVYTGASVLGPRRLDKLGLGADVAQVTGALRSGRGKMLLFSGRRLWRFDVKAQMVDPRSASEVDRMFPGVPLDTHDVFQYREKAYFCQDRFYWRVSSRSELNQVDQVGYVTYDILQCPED", "assay": "Human MMP inhibition, DQ Gelatin fluorescence", "details": "peptides 0.5 mM, activated protease 0.35 μg/mL, 1 hour preincubation; DQ Gelatin 25 μg/mL, 16 hours; normalized to control fluorescence; in % (unit assumed)", "experimental": "as §1, §2"}, "Human MMP-2": {"molecular_target": "T2, Human MMP-2 (Homo sapiens, UniProt P08253)", "T2 sequence (P08253 110-660)": "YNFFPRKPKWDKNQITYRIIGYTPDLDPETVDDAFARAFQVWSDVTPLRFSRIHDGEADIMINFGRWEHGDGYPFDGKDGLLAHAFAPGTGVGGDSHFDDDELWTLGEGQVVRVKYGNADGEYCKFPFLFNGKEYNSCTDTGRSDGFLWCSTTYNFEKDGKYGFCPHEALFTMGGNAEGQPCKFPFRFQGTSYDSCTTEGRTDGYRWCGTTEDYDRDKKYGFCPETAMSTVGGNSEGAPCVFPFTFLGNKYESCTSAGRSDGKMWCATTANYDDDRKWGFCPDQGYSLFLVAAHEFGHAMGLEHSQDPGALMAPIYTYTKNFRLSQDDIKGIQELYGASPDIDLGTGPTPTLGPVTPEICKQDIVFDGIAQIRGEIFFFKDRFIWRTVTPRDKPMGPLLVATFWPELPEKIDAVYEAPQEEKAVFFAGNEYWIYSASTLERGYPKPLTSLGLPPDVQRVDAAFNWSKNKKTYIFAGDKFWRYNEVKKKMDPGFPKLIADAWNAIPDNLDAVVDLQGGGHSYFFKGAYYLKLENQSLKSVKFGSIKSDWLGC", "assay": "Human MMP inhibition, DQ Gelatin fluorescence", "details": "peptides 0.5 mM, activated protease 0.35 μg/mL, 1 hour preincubation; DQ Gelatin 25 μg/mL, 16 hours; normalized to control fluorescence; in % (unit assumed)", "experimental": "as §1, §2"}, "Human MMP-3": {"molecular_target": "Human MMP-3 (Homo sapiens, UniProt P08254)", "sequence (P08254 100-477)": "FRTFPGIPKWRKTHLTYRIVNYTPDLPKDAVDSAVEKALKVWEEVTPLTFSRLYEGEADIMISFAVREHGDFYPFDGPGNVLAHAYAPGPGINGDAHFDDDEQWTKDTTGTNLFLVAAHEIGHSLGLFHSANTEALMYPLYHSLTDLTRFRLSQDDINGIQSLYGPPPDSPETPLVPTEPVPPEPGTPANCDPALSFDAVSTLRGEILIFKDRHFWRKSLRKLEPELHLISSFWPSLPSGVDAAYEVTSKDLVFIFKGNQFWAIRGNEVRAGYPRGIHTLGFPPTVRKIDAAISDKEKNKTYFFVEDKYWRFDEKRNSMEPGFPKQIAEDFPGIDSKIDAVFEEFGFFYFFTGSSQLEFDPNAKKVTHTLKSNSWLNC", "assay": "Human MMP inhibition, DQ Gelatin fluorescence", "details": "peptides 0.5 mM, activated protease 0.35 μg/mL, 1 hour preincubation; DQ Gelatin 25 μg/mL, 16 hours; normalized to control fluorescence", "experimental": "as §1, §2"}}, "note": "Values joined by “and” are separate entries in the source; they are usually repeats but may differ in a detail not shown here. Equal entries are not always repeated."}
{"substance": "Ac-L-Arg-L-Asn-L-His-L-Cit-CONH-(CH2)15-CH3", "values": [{"measurement": "Collagenase activity inhibition percentage", "setting": "type IV collagenase", "value": 26.8, "unit": "%"}]}
{"substance": "Ac-L-Arg-L-His-L-His-L-Cit-OH", "values": [{"measurement": "MMP-1 inhibition value", "setting": "Human MMP-1", "value": 34.7, "unit": "%"}, {"measurement": "MMP-9 inhibition value", "setting": "Human MMP-9", "value": 63.1}, {"measurement": "MMP-2 inhibition value", "setting": "Human MMP-2", "value": 101.4}, {"measurement": "MMP-3 inhibition value", "setting": "Human MMP-3", "value": 39.1, "unit": "%"}, {"measurement": "Collagenase activity inhibition percentage", "setting": "type IV collagenase", "value": 60.6, "unit": "%"}]}
{"substance": "Palm-L-Arg-L-Asn-L-Arg-L-Cit-NH2", "values": [{"measurement": "Collagenase activity inhibition percentage", "setting": "type IV collagenase", "value": 31.3, "unit": "%"}]}
{"substance": "Ac-L-Arg-L-Asn-L-Arg-L-Cit-OH", "values": [{"measurement": "MMP-9 inhibition value", "setting": "Human MMP-9", "value": "69.5 and 89.6"}, {"measurement": "MMP-2 inhibition value", "setting": "Human MMP-2", "value": "78.7 and 95.3"}, {"measurement": "Collagenase activity inhibition percentage", "setting": "type IV collagenase", "value": 58.9, "unit": "%"}]}
{"substance": "Ac-L-Arg-L-His-L-Arg-L-Cit-OH", "values": [{"measurement": "Collagenase activity inhibition percentage", "setting": "type IV collagenase", "value": 60.5, "unit": "%"}]}
{"substance": "H-L-Arg-L-Asn-L-His-L-Cit-OH", "values": [{"measurement": "Collagenase activity inhibition percentage", "setting": "type IV collagenase", "value": 26.8, "unit": "%"}]}
{"substance": "Palm-L-Arg-L-His-L-His-L-Cit-NH2", "values": [{"measurement": "Collagenase activity inhibition percentage", "setting": "type IV collagenase", "value": 36.7, "unit": "%"}]}
{"substance": "Ac-L-Ara-L-His-L-His-L-Cit-CONH-(CH2)15-CH3", "values": [{"measurement": "Collagenase activity inhibition percentage", "setting": "type IV collagenase", "value": 55.4, "unit": "%"}]}
